According to patent publication US20060025458A1, “Alkylammonium compounds as antifungal and antitrypanosomal agents” (University of Connecticut, priority 2004, published 2006):

How the values were obtained:
[1] = test system: endogenous PtdSer decarboxylase activity; assay: Serine labeling: PtdEtn formation from PtdSer in P. falciparum-infected erythrocytes; type: cell-based, Plasmodium falciparum
Procedure: FIG. 10B. Effect of G25 on PtdEtn and PtdSer synthesis from serine. 5-6×10^7 synchronized P. falciparum-infected erythrocytes (7% trophozoite stage) were pre-incubated at 4% haematocrit for 1 h in RPMI-based medium containing the indicated concentration of G25 before adding 10 μM [^14C]-serine (57 mCi/mmol). After incubation at 37° C. for 3 h, the cellular lipids were extracted and fractionated on TLC plates for quantification of radioactivity in PtdSer (black diamonds), and PtdEtn (white circles).
Labeling Studies and Phospholipid Analysis in P. falciparum: Nigerian strains of P. falciparum were asexually cultured in the presence of basic medium (RPMI 1640 supplemented with 25 mM Hepes, pH 7.4) and 10% AB^+ human serum (Trager and Jensen, 1976). Parasite synchronization was obtained with three successive 5% sorbitol treatments (Lambros and Vanderberg, 1979). Synchronized P. falciparum-infected erythrocytes (7-10% parasitemia, trophozoites) were pre-incubated for 1 hour at 37° C. at 4% hematocrit in 2 ml (final volume) basic medium in the absence or the presence of different concentrations of the compound G25. The appropriate radioactive precursor of lipid metabolism was added followed by further 3 h of incubation. […] The silica gel of the lipid spots were scraped directly into scintillation vials containing 3 ml of liquid-scintillation fluid and counted in a Beckman LS 5000 spectrophotometer. The amount of labeled precursors incorporated into cellular lipids (nmol×10^7 cell^−1×h^−1) was computed on the basis of radioactivity incorporated into lipids and the specific activity of the precursors in the incubation medium.
The possible inhibition of PtdSer decarboxylase activity in P. falciparum by G25 was investigated. P. falciparum-infected erythrocytes were labeled with radiolabeled serine, which is readily incorporated into PtdSer, in the presence or absence of increasing concentrations of G25, and the effect of this compound on the parasite endogenous PtdSer decarboxylase activity was measured by following the formation of PtdEtn from PtdSer (FIG. 10B). […]

[2] = test system: P. falciparum and P. cynomolgi; details: very low doses; cited from earlier work
[3] = test system: choline transport in the wild-type strain of S. cerevisiae; assay: [methyl-3H]-choline uptake in wild-type S. cerevisiae; type: cell-based, Saccharomyces cerevisiae
Procedure: Uptake Assays: Yeast strains were grown in synthetic complete medium supplemented as required to maintain cell growth to an optical density of 0.55-0.65 at 600 nm. Cells were harvested by centrifugation at 3,200×g for 10 min at 4° C., washed twice in cold PBS and resuspended in nitrogen-free medium (SD without ammonium sulfate). […] After 3 min incubation at 30° C. with shaking, transport was immediately stopped by filtration through Whatman GF/C glass microfiber paper. The filters were washed three times with 5 ml ice-cold PBS, air dried, and analyzed in a scintillation counter. For time course uptake, 3-4×10^7 cells were incubated at 30° C. in 1 ml of nitrogen-free medium in the presence of 25 nM [^3H]-T16 (69 Ci/mmol) for different time periods (1, 2, 3, 4, 5, 7, 10 and 15 min) after which 5 ml of cold PBS was added to stop the reaction. Kinetic parameters were determined after 4 min of incubation at 30° C. in the presence of [^3H]-T16 at concentrations ranging from 25 nM to 75 μM (69 Ci - 23 mCi/mol). The samples were centrifuged at 4° C. for 10 min at 1,200×g, the supernatants were discarded and the cells were then resuspended in 5 ml of cold PBS. The reaction was terminated by filtering the cell suspension through GF/C membranes that were pretreated with 15 ml of 0.05% polyethyleneimine (PEI). The filters were washed twice with 5 ml of cold PBS, air dried, and analyzed in a scintillation counter. The cellular accumulation ratio (CAR) was calculated as previously described for T16 and G25 (Biagini, et al., 2003; Wengelnik, et al., 2002).

[4] = test system: promastigote form of L. major; assay: Growth inhibition of Leishmania major promastigotes; type: cell-based; details: read-out: IC50 of choline analogs in Leishmania major, WT
Procedure: For those drugs, IC50 values were determined.

C[N+]1(CCCCCCCCCCCCCCCC[N+]2(C)CCCC2)CCCC1.[Br-].[Br-] [G25, 1,16-hexadecamethylenebis[N-methylpyrrolidinium]dibromide]
decrease in the pool of PtdEtn formed from PtdSer ([1]; 100 μM G25): 77%
effect on first step of the CDP-DAG pathway catalyzed by PtdSer synthase ([1]; 100 μM G25): no effect
total incorporation of serine ([1]; increasing concentrations of G25): not affected
malaria infection in monkeys [2]: cleared malaria infection
inhibition of choline transport ([3]; 20-fold excess over [methyl-3H]-choline): 50%
inhibition of choline transport ([3]; 100-fold excess over [methyl-3H]-choline): 84%
IC50 [4]: 8.1 µM
